Laboratory results: PubChem BioAssay (NCI)
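The compound was tested at five concentrations on cells cultured in 96-well plates, with a 48-hour exposure period. At the TGI there is no net growth.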

Columns and labels:
Test in all cases: NCI tumour cell line growth inhibition, 48 h
[1] = tested on: 786-0 renal
[2] = tested on: A549 NSCLC
[3] = tested on: BT-549 breast
[4] = tested on: CAKI-1 renal
[5] = tested on: COLO 205 colon
[6] = tested on: DU-145 prostate
[7] = tested on: HCC-2998 colon
[8] = tested on: HCT-116 colon
[9] = tested on: HCT-15 colon
[10] = tested on: HOP-92 NSCLC
[11] = tested on: HT29 colon
[12] = tested on: KM12 colon
[13] = tested on: M14 melanoma
[14] = tested on: MALME-3M melanoma
[15] = tested on: MCF7 breast
[16] = tested on: MDA-MB-231 breast
[17] = tested on: MDA-MB-435
[18] = tested on: MDA-N
[19] = tested on: NCI-H226 lung
[20] = tested on: NCI-H23 lung
[21] = tested on: NCI-H522 lung
[22] = tested on: NCI/ADR-RES ovarian
[23] = tested on: OVCAR-3 ovarian
[24] = tested on: OVCAR-4 ovarian
[25] = tested on: OVCAR-5 ovarian
[26] = tested on: OVCAR-8 ovarian
[27] = tested on: PC-3 prostate
[28] = tested on: RPMI-8226 leukemia
[29] = tested on: RXF 393 renal
[30] = tested on: SF-268 CNS
[31] = tested on: SF-295 CNS
[32] = tested on: SF-539 CNS
[33] = tested on: SK-MEL-2 melanoma
[34] = tested on: SK-MEL-28 melanoma
[35] = tested on: SK-MEL-5 melanoma
[36] = tested on: SN12C renal
[37] = tested on: SNB-19 CNS
[38] = tested on: SNB-75 CNS
[39] = tested on: SW-620 colon
[40] = tested on: T-47D breast
[41] = tested on: TK-10 renal
[42] = tested on: U251 CNS
[43] = tested on: UACC-257 melanoma
[44] = tested on: UACC-62 melanoma
[45] = tested on: UO-31 renal
[46] = tested on: A498 renal
[47] = tested on: ACHN renal
[48] = tested on: CCRF-CEM leukemia
[49] = tested on: EKVX NSCLC
[50] = tested on: HL-60(TB) leukemia
[51] = tested on: HOP-62 NSCLC
[52] = tested on: HS 578T breast
[53] = tested on: IGROV1 ovarian
[54] = tested on: K-562 leukemia
[55] = tested on: LOX IMVI melanoma
[56] = tested on: MOLT-4 leukemia
[57] = tested on: NCI-H460 lung
[58] = tested on: SK-OV-3 ovarian
[59] = tested on: SR leukemia

`NC(=O)OCc1c(-c2ccccc2)nn(-c2ccccc2)c1COC(N)=O` showed a TGI [1] of over 100 µM, a TGI [2] of over 100 µM and a TGI [3] of over 100 µM. It also gave a TGI [4] of over 100 µM, a TGI [5] of over 100 µM and a TGI [6] of over 100 µM. The TGI [7] was over 100 µM, the TGI [8] was over 100 µM and the TGI [9] was over 100 µM. The TGI [10] was over 100 µM, the TGI [11] was over 100 µM and the TGI [12] was over 100 µM. The TGI [13] was over 100 µM, the TGI [14] was over 100 µM and the TGI [15] was over 100 µM. The TGI [16] was over 100 µM, the TGI [17] was over 100 µM and the TGI [18] was over 100 µM. For the same compound, the TGI [19] was over 100 µM, the TGI [20] was over 100 µM and the TGI [21] was over 100 µM. The TGI [22] was over 100 µM, the TGI [23] was over 100 µM and the TGI [24] was over 100 µM. For the same compound, the TGI [25] was over 100 µM, the TGI [26] was over 100 µM and the TGI [27] was over 100 µM. It also gave a TGI [28] of over 100 µM, a TGI [29] of over 100 µM and a TGI [30] of over 100 µM. The TGI [31] was over 100 µM, the TGI [32] was over 100 µM and the TGI [33] was over 100 µM. For the same compound, the TGI [34] was over 100 µM, the TGI [35] was over 100 µM and the TGI [36] was over 100 µM. It also gave a TGI [37] of over 100 µM, a TGI [38] of over 100 µM and a TGI [39] of over 100 µM. It also gave a TGI [40] of over 100 µM, a TGI [41] of over 100 µM and a TGI [42] of over 100 µM. For the same compound, the TGI [43] was over 100 µM, the TGI [44] was over 100 µM and the TGI [45] was over 100 µM.

`c1cc(NC2=NCCO2)c2c(c1)OCO2` showed a TGI [1] of over 100 µM, a TGI [46] of over 100 µM and a TGI [2] of over 100 µM. The TGI [47] was over 100 µM, the TGI [4] was over 100 µM and the TGI [48] was over 100 µM. The TGI [5] was over 100 µM, the TGI [6] was over 100 µM and the TGI [49] was over 100 µM. It also gave a TGI [7] of over 100 µM, a TGI [8] of over 100 µM and a TGI [9] of over 100 µM. It also gave a TGI [50] of over 100 µM, a TGI [51] of over 100 µM and a TGI [10] of over 100 µM. The TGI [52] was over 100 µM, the TGI [11] was over 100 µM and the TGI [53] was over 100 µM. The TGI [54] was over 100 µM, the TGI [12] was over 100 µM and the TGI [55] was over 100 µM. For the same compound, the TGI [13] was over 100 µM, the TGI [14] was over 100 µM and the TGI [15] was over 100 µM. The TGI [16] was over 100 µM, the TGI [17] was over 100 µM and the TGI [18] was over 100 µM. For the same compound, the TGI [56] was over 100 µM, the TGI [19] was over 100 µM and the TGI [20] was over 100 µM. It also gave a TGI [57] of over 100 µM, a TGI [21] of over 100 µM and a TGI [22] of over 100 µM. It also gave a TGI [23] of over 100 µM, a TGI [24] of over 100 µM and a TGI [25] of over 100 µM. For the same compound, the TGI [26] was over 100 µM, the TGI [27] was over 100 µM and the TGI [28] was over 100 µM. For the same compound, the TGI [29] was over 100 µM, the TGI [30] was over 100 µM and the TGI [31] was over 100 µM. The TGI [32] was over 100 µM, the TGI [33] was over 100 µM and the TGI [34] was over 100 µM. For the same compound, the TGI [35] was over 100 µM, the TGI [58] was over 100 µM and the TGI [36] was over 100 µM. For the same compound, the TGI [37] was over 100 µM, the TGI [59] was over 100 µM and the TGI [39] was over 100 µM. It also gave a TGI [40] of over 100 µM, a TGI [42] of over 100 µM and a TGI [43] of over 100 µM. For the same compound, the TGI [44] was over 100 µM and the TGI [45] was over 100 µM.

With `CC1c2cc(c3c(c2O)CN([C@@H](C)C2CCCCC2)CO3)C(C)c2cc(c3c(c2O)CN([C@@H](C)C2CCCCC2)CO3)C(C)c2cc(c3c(c2O)CN([C@@H](C)C2CCCCC2)CO3)C(C)c2cc1c1c(c2O)CN([C@@H](C)C2CCCCC2)CO1` (some centres undefined) the TGI [1] was 2.4 µM, the TGI [46] was 3.57 µM and the TGI [2] was over 100 µM. The TGI [47] was 2.78 µM, the TGI [3] was 3.49 µM and the TGI [4] was 2.95 µM. The TGI [48] was 1.45 µM, the TGI [5] was 2.65 µM and the TGI [6] was 2.64 µM. The TGI [49] was 2.45 µM, the TGI [7] was 2.82 µM and the TGI [8] was 2.04 µM. It also gave a TGI [9] of 2.92 µM, a TGI [50] of 5.59 µM and a TGI [10] of 2.85 µM. It also gave a TGI [52] of 3.15 µM, a TGI [11] of 1.26 µM and a TGI [53] of 2.61 µM. For the same compound, the TGI [54] was 2.01 µM, the TGI [12] was 2.15 µM and the TGI [13] was over 23.7 µM. The TGI [14] was 2.98 µM, the TGI [16] was 2.7 µM and the TGI [17] was 3.62 µM. For the same compound, the TGI [18] was 3.04 µM, the TGI [56] was 9.63 µM and the TGI [19] was 2.22 µM. The TGI [57] was 2.53 µM, the TGI [21] was 1.58 µM and the TGI [22] was 2.67 µM. It also gave a TGI [23] of 2.93 µM, a TGI [24] of 3.03 µM and a TGI [25] of 4.04 µM. It also gave a TGI [26] of 2.4 µM, a TGI [28] of 2.15 µM and a TGI [29] of over 100 µM. The TGI [30] was 2.85 µM, the TGI [33] was 6.2 µM and the TGI [34] was 3.55 µM. It also gave a TGI [35] of 3.46 µM, a TGI [58] of 2.72 µM and a TGI [36] of 2.29 µM. It also gave a TGI [37] of 3.44 µM, a TGI [38] of 2.77 µM and a TGI [59] of 1.44 µM. The TGI [40] was 3.23 µM, the TGI [41] was 3.19 µM and the TGI [42] was 2.83 µM. The TGI [43] was 3.24 µM, the TGI [44] was 3.86 µM and the TGI [45] was 3.21 µM.

With `COc1ccc(C(c2ccc3c(c2)OCO3)N2C(=O)CCC2C(=O)O)cc1` (centres undefined) the TGI [1] was over 100 µM, the TGI [46] was over 100 µM and the TGI [2] was over 100 µM. For the same compound, the TGI [47] was over 100 µM, the TGI [3] was over 100 µM and the TGI [4] was over 100 µM. The TGI [48] was over 100 µM, the TGI [5] was over 100 µM and the TGI [6] was over 100 µM. It also gave a TGI [49] of over 100 µM, a TGI [7] of over 100 µM and a TGI [8] of over 100 µM. The TGI [9] was over 100 µM, the TGI [50] was over 100 µM and the TGI [51] was over 100 µM. The TGI [10] was over 100 µM, the TGI [11] was over 100 µM and the TGI [53] was over 100 µM. For the same compound, the TGI [54] was over 100 µM, the TGI [12] was over 100 µM and the TGI [55] was over 100 µM. The TGI [13] was over 100 µM, the TGI [14] was over 100 µM and the TGI [15] was over 100 µM. The TGI [16] was over 100 µM, the TGI [17] was over 100 µM and the TGI [18] was over 100 µM. The TGI [56] was over 100 µM, the TGI [19] was over 100 µM and the TGI [20] was over 100 µM. For the same compound, the TGI [57] was over 100 µM, the TGI [21] was over 100 µM and the TGI [22] was over 100 µM. It also gave a TGI [23] of over 100 µM, a TGI [24] of over 100 µM and a TGI [25] of over 100 µM. It also gave a TGI [26] of over 100 µM, a TGI [27] of over 100 µM and a TGI [28] of over 100 µM. The TGI [30] was over 100 µM, the TGI [31] was over 100 µM and the TGI [32] was over 100 µM. For the same compound, the TGI [33] was over 100 µM, the TGI [34] was over 100 µM and the TGI [35] was over 100 µM. The TGI [58] was over 100 µM, the TGI [36] was over 100 µM and the TGI [37] was over 100 µM. The TGI [38] was over 100 µM, the TGI [59] was over 100 µM and the TGI [39] was over 100 µM. For the same compound, the TGI [40] was over 100 µM, the TGI [41] was over 100 µM and the TGI [42] was over 100 µM. It also gave a TGI [43] of over 100 µM, a TGI [44] of over 100 µM and a TGI [45] of over 100 µM.
